Series [1] in a line: Physicochemical stability on storage at 25° C./60% RH: variation of the content of impurities compared with t0. To be noted: after 6 months 25° C./60% RH compared with t0. On the procedure:
Variation of the content of impurities (in % relative) after 6 months 25° C./60% RH compared with t0.
Other hydrophilic polymers such as polyethyleneglycols were tested.

The nature of series [2]: Required storage temperature (stability). Format: physicochemical. The conditions noted are these: regardless of form (amorphous or crystalline) and degree of division.

This is an account of results in US9061015B2, “Stable solid dispersion of a derivative of vinca alkaloid and process for manufacturing it” (PIERRE FABRE MEDICAMENT, priority 2004, dated 2015).

Turning to `CCC1=C[C@@H]2CN(C1)Cc1c([nH]c3ccccc13)[C@@](C(=O)OC)(c1cc3c(cc1OC)N(C)[C@H]1[C@@](O)(C(=O)OC)[C@H](OC(C)=O)[C@]4(CC)C=CCN5CC[C@]31[C@@H]54)C2` [Vinorelbine ditartrate, vinorelbine ditartrate], in series [1], the “4-0-deacetylvinorelbine impurity, variation of the content” value was “+0.05 % relative”; the “6′-N-methylvinorelbine impurity, variation of the content” value is reported as “+0.05 % relative”; the “6′-N-oxyvinorelbine impurity, variation of the content” value is “+0.37 % relative”; the “S/D6 impurity, variation of the content” value is “+1.02 % relative”. For the same compound, the “Total impurities, variation of the content” value in series [1] is “+1.87 % relative”. In addition, in series [2], the “temperature at which it must be kept” value is “below −15 °C”.
